The values that follow come from US20260144788A1, “COMPOUND FOR SHP2 PROTEIN DEGRADATION AND MEDICAL USES THEREOF” (UBIX THERAPEUTICS, INC., priority 2022, published 2026).

This experiment deals with T1, SHP2 protein (Homo sapiens, UniProt Q06124).
T1 sequence (Q06124 1-593): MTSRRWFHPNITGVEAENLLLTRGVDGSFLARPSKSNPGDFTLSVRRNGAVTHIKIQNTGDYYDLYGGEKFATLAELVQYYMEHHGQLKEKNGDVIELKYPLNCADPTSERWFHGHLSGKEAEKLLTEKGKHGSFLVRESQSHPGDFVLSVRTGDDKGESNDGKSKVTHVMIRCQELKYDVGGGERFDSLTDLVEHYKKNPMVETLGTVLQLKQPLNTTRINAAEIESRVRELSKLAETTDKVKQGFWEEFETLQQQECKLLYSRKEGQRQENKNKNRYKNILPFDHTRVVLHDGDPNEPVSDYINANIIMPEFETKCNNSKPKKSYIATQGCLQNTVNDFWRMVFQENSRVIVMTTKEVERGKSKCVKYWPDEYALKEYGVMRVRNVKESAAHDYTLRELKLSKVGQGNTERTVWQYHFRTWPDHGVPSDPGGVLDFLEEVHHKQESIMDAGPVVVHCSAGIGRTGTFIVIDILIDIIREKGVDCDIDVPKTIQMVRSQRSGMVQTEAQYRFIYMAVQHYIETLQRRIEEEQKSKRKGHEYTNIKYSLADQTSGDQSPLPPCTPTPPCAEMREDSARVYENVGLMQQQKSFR
Put plainly: Measurement of SHP2 protein degradation in MV-4-11 cells (western blotting). The experiment is classed as cell-based. Set-up: endogenous in cells. The note with it: harvested after 24 hours. The procedure:
MV-4-11 cells were treated with the synthesized Example compounds, and the amount of SHP2 protein present in the cells was measured using western blotting detection. The protocol for the experiment conducted using MV-4-11 cells is as follows.
[Culture] MV-4-11 cells were resuspended in IMDM MEDIUM (Hyclone, SH30228.01), 5% FBS (Hyclone, SV30207.02), 1% Penicillin-streptomycin (Welgene, LS 202-02) media and seeded at 1×10^6/mL in 12-well plates (1 mL each).
[Compound treatment]12-well plates were treated as follows. 10 mM stock dissolved in DMSO was serially diluted 1/100 or 1/10 with media, and the compounds were treated to the cells at a final concentration of 0.01, 0.1, 1 μM or 0.001, 0.01, 0.1 μM, and harvested after 24 hours. For the negative control group, DMSO diluted 1/100 or 1/1000 in media was added (3 μL DMSO+297 μL media or 1 μL DMSO+999 μL media).
[Harvest] Each well was pipetted with a 1 mL pipette, collected in a 1.5 mL microtube, and centrifuged (500 g, 5 min, 4° C.). The supernatant was removed, washed with PBS, and centrifuged again (500 g, 5 min, 4° C.). The supernatant was removed and a pellet was prepared.
[Cell lysis and sample preparation] Lysis buffer was prepared as follows. RIPA buffer (Biosesang, RC2038-050-00)+0.5 mM PMSF (SIGMA, P7626)+1× Protease/Phosphatase Inhibitor (Cell signaling, 5872S) were added at 50 μL per tube and incubated on ice for 30 minutes (vortexed at 0 and 30 minutes). After sonication (10 sec pulse, 30 sec rest, 5 cycles, 70% amplification) and centrifugation (15,000 g, 15 min, 4° C.), only the supernatant was transferred to a microtube. RIPA buffer 7.5 μL and sample 2.5 μL were added to a 96-well plate to dilute to 1/4, and then BCA Protein Assay Kit (iNtRON, 21071) A and B were mixed in a 50:1 ratio and 200 μL each was added. After that, the plate was incubated at 37° C. for 30 minutes and left at room temperature for 10 minutes. After shaking for 10 seconds with a SYNERGY H1 microplate reader from BioTek, the absorbance was measured at 562 nm. The protein was quantified using the measured value to prepare a sample, which was then incubated at 70° C. for 10 minutes. The sample buffer used at this time is a mixture of NuPAGE or Bolt 4× sample buffer (Invitrogen) and each 10× sample reducing agent according to the gel to be used, and RIPA buffer was used for protein dilution.
[Western blotting detection] Equal amounts of samples were loaded onto NuPAGE or Bolt Bis-tris 4-12% gradient gels and run (200 V, 35 min). This was transferred to […] NC membranes using Trans-blot Turbo (BIO-RAD) (1.3 A constant, 25 V limit, 15 min), and was blocked at room temperature for 1 hour with Skim milk or Intercept Blocking Buffer (LI-COR, 927-60001):0.1% TBST=1:1. Anti-SHPTP2 Mouse (1:500 in 2% BSA/0.2% TBST, size: 70 kDa, Santacruz sc-7384) was incubated overnight at 4° C., and Anti-GAPDH Rabbit (1:2,000 in 2% BSA/0.2% TBST, size: 37 kDa, CST #2118) was incubated at room temperature for 1.5 hours or 3 hours. After washing three times for 5 minutes each with 0.2% TBST washing buffer, secondary antibodies Anti-Mouse IgG (1:5,000 in 2% BSA/0.2% TBST, CST) and IRDye® 680RD Goat anti-Rabbit IgG Secondary Antibody (1:10,000 in 2% BSA/0.2% TBST, LI-COR 926-68071) were added, and incubated on a rocker at room temperature for 45 minutes. The resultants were washed five times for 5 minutes each with 0.2% TBST washing buffer, and detected using LI-COR's Odyssey. GAPDH was detected with a 700 nm channel, and SHPTP2 was detected using SuperSignal West Pico PLUS Chemiluminescent Substrate.
(In general: A western blot detects proteins with antibodies after separation by electrophoresis.)

Each structure is given as a SMILES string.

With `Cc1ncsc1-c1ccc(CNC(=O)[C@@H]2C[C@@H](O)CN2C(=O)[C@@H](NC(=O)C2(F)CC2)C(C)(C)C)c(OC2CN(C(=O)C3CCN(c4nccc(Sc5cnc(N6CCC(C)(CN)CC6)cn5)c4Cl)CC3)C2)c1` [Example 73, (2S,4R)—N-(2-((1-(1-(4-((5-(4-(aminomethyl)-4-methylpiperidin-1-yl)pyrazin-2-yl)thio)-3-chloropyridin-2-yl)piperidine-4-carbonyl)azetidin-3-yl)oxy)-4-(4-methylthiazol-5-yl)benzyl)-1-((S)-2-(1-fluorocyclopropane-1-carboxamido)-3,3-dimethylbutanoyl)-4-hydroxypyrrolidine-2-carboxamide], the SHP2% degradation turned out to be 65.8% (0.01 μM) and 97.7% (0.1 μM).
The matching figures for `Cc1ncsc1-c1ccc(CNC(=O)[C@@H]2C[C@@H](O)CN2C(=O)[C@@H](NC(=O)C2(F)CC2)C(C)(C)C)c(OC2CCN(CC3CCN(c4nccc(Sc5cnc(N6CCC(C)(CN)CC6)cn5)c4Cl)CC3)CC2)c1` [Example 9, (2S,4R)—N-(2-((1-((1-(4-((5-(4-(aminomethyl)-4-methylpiperidin-1-yl)pyrazin-2-yl)thio)-3-chloropyridin-2-yl)piperidin-4-yl)methyl)piperidin-4-yl)oxy)-4-(4-methylthiazol-5-yl)benzyl)-1-((S)-2-(1-fluorocyclopropane-1-carboxamido)-3,3-dimethylbutanoyl)-4-hydroxypyrrolidine-2-carboxamide]: 4.0% and 81.1%.
For `CC(=O)N[C@H](C(=O)N1C[C@H](O)C[C@H]1C(=O)N[C@@H](C)c1ccc(-c2scnc2C)cc1OC1CCN(C(=O)C2CCN(c3nccc(Sc4cnc(N5CCC(C)(CN)CC5)cn4)c3Cl)CC2)CC1)C(C)(C)C` [Example 87, (2S,4R)-1-((S)-2-acetamido-3,3-dimethylbutanoyl)-N—((S)-1-(2-((1-(1-(4-((5-(4-(aminomethyl)-4-methylpiperidin-1-yl)pyrazin-2-yl)thio)-3-chloropyridin-2-yl)piperidine-4-carbonyl)piperidin-4-yl)oxy)-4-(4-methylthiazol-5-yl)phenyl)ethyl)-4-hydroxypyrrolidine-2-carboxamide] the same measures were 95.8% and 100.0%.
For `Cc1ncsc1-c1ccc(CNC(=O)[C@@H]2C[C@@H](O)CN2C(=O)[C@@H](NC(=O)C2(F)CC2)C(C)(C)C)c(OC2CCN(C(=O)C3(O)CCN(c4nccc(Sc5cnc(N6CCC(C)(CN)CC6)cn5)c4Cl)CC3)CC2)c1` [Example 70, (2S,4R)—N-(2-((1-(1-(4-((5-(4-(aminomethyl)-4-methylpiperidin-1-yl)pyrazin-2-yl)thio)-3-chloropyridin-2-yl)-4-hydroxypiperidine-4-carbonyl)piperidin-4-yl)oxy)-4-(4-methylthiazol-5-yl)benzyl)-1-((S)-2-(1-fluorocyclopropane-1-carboxamido)-3,3-dimethylbutanoyl)-4-hydroxypyrrolidine-2-carboxamide] the same measures were 84.5% and 99.9%.
For the compound `Cc1ncsc1-c1ccc(CNC(=O)[C@@H]2C[C@@H](O)CN2C(=O)[C@@H](NC(=O)C2(F)CC2)C(C)(C)C)c(O[C@H]2CC[C@H](C(=O)N3CC(Nc4nccc(Sc5cnc(N6CCC(C)(N)CC6)cn5)c4Cl)C3)CC2)c1` [Example 21, (2S,4R)—N-(2-(((1R,4S)-4-(3-((4-((5-(4-amino-4-methylpiperidin-1-yl)pyrazin-2-yl)thio)-3-chloropyridin-2-yl)amino)azetidine-1-carbonyl)cyclohexyl)oxy)-4-(4-methylthiazol-5-yl)benzyl)-1-((S)-2-(1-fluorocyclopropane-1-carboxamido)-3,3-dimethylbutanoyl)-4-hydroxypyrrolidine-2-carboxamide], the SHP2% degradation stood at 81.1% (0.01 μM) and 99.7% (0.1 μM).
With `Cc1ncsc1-c1ccc(CNC(=O)[C@@H]2C[C@@H](O)CN2C(=O)[C@@H](NC(=O)C2(F)CC2)C(C)(C)C)c(O[C@H]2CC[C@H](C(=O)N3CCC(Nc4nccc(Sc5cnc(N6CCC(C)(CN)CC6)cn5)c4Cl)CC3)CC2)c1` [Example 23, (2S,4R)—N-(2-(((1R,4S)-4-(4-((4-((5-(4-(aminomethyl)-4-methylpiperidin-1-yl)pyrazin-2-yl)thio)-3-chloropyridin-2-yl)amino)piperidine-1-carbonyl)cyclohexyl)oxy)-4-(4-methylthiazol-5-yl)benzyl)-1-((S)-2-(1-fluorocyclopropane-1-carboxamido)-3,3-dimethylbutanoyl)-4-hydroxypyrrolidine-2-carboxamide], the SHP2% degradation by setting is: (0.01 μM) 74.2%; (0.1 μM) 99.8%.
For `Cc1ncsc1-c1ccc(CNC(=O)[C@@H]2C[C@@H](O)CN2C(=O)[C@@H](NC(=O)C2(F)CC2)C(C)(C)C)c(OC2CCN(C(=O)CC3(O)CCN(c4nccc(Sc5cnc(N6CCC(C)(CN)CC6)cn5)c4Cl)CC3)CC2)c1` [Example 72, (2S,4R)—N-(2-((1-(2-(1-(4-((5-(4-(aminomethyl)-4-methylpiperidin-1-yl)pyrazin-2-yl)thio)-3-chloropyridin-2-yl)-4-hydroxypiperidin-4-yl)acetyl)piperidin-4-yl)oxy)-4-(4-methylthiazol-5-yl)benzyl)-1-((S)-2-(1-fluorocyclopropane-1-carboxamido)-3,3-dimethylbutanoyl)-4-hydroxypyrrolidine-2-carboxamide] the same measures were 91.5% and 99.8%.
The matching figures for `CC(=O)N[C@H](C(=O)N1C[C@H](O)C[C@H]1C(=O)NCc1ccc(-c2scnc2C)cc1O[C@H]1CC[C@H](C(=O)N2CCC(Nc3nccc(Sc4cnc(N5CCC(C)(CN)CC5)cn4)c3Cl)CC2)CC1)C(C)(C)C` [Example 41, (2S,4R)-1-((S)-2-acetamido-3,3-dimethylbutanoyl)-N-(2-(((1R,4S)-4-(4-((4-((5-(4-(aminomethyl)-4-methylpiperidin-1-yl)pyrazin-2-yl)thio)-3-chloropyridin-2-yl)amino)piperidine-1-carbonyl)cyclohexyl)oxy)-4-(4-methylthiazol-5-yl)benzyl)-4-hydroxypyrrolidine-2-carboxamide]: 98.2% and 99. %.
